Test results as given in ChEMBL document CHEMBL1671654, “In vivo activity of the pyrrolopyrazolyl-substituted oxazolidinone RWJ-416457” (Antimicrob Agents Chemother, 2009).
Converted amounts (≈) assume the structure as drawn. The source made the active and inactive calls. No cut-off for these calls is given here.

What was measured:
Staphylococcus aureus [1] = test: Bacteriostatic activity against methicillin-susceptible Staphylococcus aureus Smith ATCC 13709 infected in SKH1 mouse upto 25 mg/kg/day, sc administered post infection measured after 48 hrs; type: functional, organism-based
Staphylococcus aureus [2] = test: Antibacterial activity against community-associated methicillin-resistant Staphylococcus aureus OC8525 infected in iv dosed Swiss Webster mouse administered at 1 to 3 hrs post infection measured after 3 days; type: functional
Staphylococcus aureus [3] = test: Antibacterial activity against community-associated methicillin-resistant Staphylococcus aureus OC8525 infected in SKH1 mouse assessed as log reduction in CFU/g skin up to 25 mg/kg/day, sc administered post infection measured after 48 hrs; type: functional, organism-based
Staphylococcus aureus [4] = test: Antibacterial activity against methicillin-susceptible Staphylococcus aureus ATCC 13709 infected in iv dosed Swiss Webster mouse administered at 1 to 3 hrs post infection measured after 3 days; type: functional; conditions: ATCC 13709, iv
Staphylococcus aureus [5] = test: Antibacterial activity against methicillin-susceptible Staphylococcus aureus ATCC 13709 infected in sc dosed Swiss Webster mouse administered at 1 to 3 hrs post infection measured after 3 days; type: functional; conditions: ATCC 13709, sc
Staphylococcus aureus [6] = test: Antibacterial activity against community-associated methicillin-resistant Staphylococcus aureus OC8525 infected in sc dosed Swiss Webster mouse administered at 1 to 3 hrs post infection measured after 3 days; type: functional
[7] = Cmax in CF-1 mouse at 10 mg/kg, sc; type: ADME, organism-based; design: dose 10 mg/kg, route subcutaneous; conditions: in vivo
Staphylococcus aureus [8] = test: Antibacterial activity against community-associated methicillin-resistant Staphylococcus aureus OC8525 infected in SKH1 mouse assessed as log reduction in CFU/g skin at 5 mg/kg/day, po administered post infection measured after 48 hrs; type: functional, organism-based
Staphylococcus aureus [9] = test: Antibacterial activity against community-associated methicillin-resistant Staphylococcus aureus OC8525 infected in po dosed Swiss Webster mouse administered at 1 to 3 hrs post infection measured after 3 days; type: functional
[10] = Cmax in CF-1 mouse at 10 mg/kg, po; type: ADME, organism-based; design: dose 10 mg/kg, route oral; conditions: in vivo
Staphylococcus aureus [11] = test: Bacteriostatic activity against methicillin-susceptible Staphylococcus aureus Smith ATCC 13709 infected in SKH1 mouse at 20 mg/kg/day, po administered post infection measured after 48 hrs; type: functional, organism-based
Mus musculus [12] = test: fCmax in CF-1 mouse at 2 mg/kg, iv; type: ADME, organism-based; design: dose 2 mg/kg, route intravenous; conditions: in vivo
Streptococcus pneumoniae [13] = test: Antibacterial activity against penicillin-susceptible Streptococcus pneumoniae ATCC 6301 infected in iv dosed Swiss Webster mouse administered at 1 to 3 hrs post infection measured after 3 days; type: functional; conditions: ATCC 6301, iv
[14] = Ratio of fAUC (24 hrs) for penicillin-susceptible Streptococcus pneumoniae ATCC 6301 infected iv dosed mouse to MIC for penicillin-susceptible Streptococcus pneumoniae ATCC 6301; type: functional
Staphylococcus aureus [15] = test: Antibacterial activity against Methicillin-susceptible Staphylococcus aureus ATCC 13709 after 16 to 20 hrs by broth microdilution method relative to Linezolid; type: functional
[16] = Tmax in CF-1 mouse serum at 10 mg/kg, sc; type: ADME, organism-based; design: dose 10 mg/kg, route subcutaneous
[17] = Tmax in CF-1 mouse serum at 10 mg/kg, po; type: ADME, organism-based; design: dose 10 mg/kg, route oral
Streptococcus pneumoniae [18] = test: Antibacterial activity against penicillin-susceptible Streptococcus pneumoniae ATCC 6301 after 16 to 20 hrs by broth microdilution method relative to Linezolid; type: functional
[19] = Apparent oral clearance in CF-1 mouse at 10 mg/kg, po; type: ADME, organism-based; design: dose 10 mg/kg, route oral; conditions: in vivo
Streptococcus pneumoniae [20] = test: Antibacterial activity against penicillin-susceptible Streptococcus pneumoniae ATCC 6301 infected in po dosed CF-1 mouse administered at 24 hrs post infection measured after 48 hrs relative to Linezolid; type: functional
[21] = Clearance in CF-1 mouse at 2 mg/kg, iv; type: ADME, organism-based; design: dose 2 mg/kg, route intravenous; conditions: in vivo
[22] = Half life in CF-1 mouse at 10 mg/kg, po; type: ADME, organism-based; design: dose 10 mg/kg, route oral; conditions: in vivo
[23] = Ratio of fAUC (24 hrs) for penicillin-susceptible Streptococcus pneumoniae ATCC 6301 infected sc dosed mouse to MIC for penicillin-susceptible Streptococcus pneumoniae ATCC 6301; type: functional
[24] = Cmax in CF-1 mouse at 2 mg/kg, iv; type: ADME, organism-based; design: dose 2 mg/kg, route intravenous; conditions: in vivo
[25] = Ratio of fAUC (24 hrs) for community-associated methicillin-resistant Staphylococcus aureus OC8525 infected sc dosed mouse to MIC for community-associated methicillin-resistant Staphylococcus aureus OC8525; type: functional
[26] = Ratio of fAUC (24 hrs) for Methicillin-susceptible Staphylococcus aureus ATCC 13709 infected po dosed mouse to MIC for Methicillin-susceptible Staphylococcus aureus ATCC 1370; type: functional
Mus musculus [27] = test: fAUC (0 to 24 hrs) in CF-1 mouse at 10 mg/kg, po; type: ADME, organism-based; design: dose 10 mg/kg, route oral; conditions: in vivo
[28] = Half life in CF-1 mouse at 10 mg/kg, sc; type: ADME, organism-based; design: dose 10 mg/kg, route subcutaneous; conditions: in vivo
Mus musculus [29] = test: fCmax in CF-1 mouse at 10 mg/kg, sc; type: ADME, organism-based; design: dose 10 mg/kg, route subcutaneous; conditions: in vivo
Staphylococcus aureus [30] = test: Antibacterial activity against Methicillin-susceptible Staphylococcus aureus assessed as skin lesion size; type: functional
[31] = Ratio of fAUC (24 hrs) for community-associated methicillin-resistant Staphylococcus aureus OC8525 infected iv dosed mouse to MIC for community-associated methicillin-resistant Staphylococcus aureus OC8525; type: functional
Mus musculus [32] = test: fAUC (0 to 24 hrs) in CF-1 mouse at 10 mg/kg, sc; type: ADME, organism-based; design: dose 10 mg/kg, route subcutaneous; conditions: in vivo
Staphylococcus aureus [33] = test: Antibacterial activity against community-associated methicillin-resistant Staphylococcus aureus OC8525 after 16 to 20 hrs by broth microdilution method; type: functional
[34] = AUC (0 to 24 hrs) in CF-1 mouse at 10 mg/kg, sc; type: ADME, organism-based; design: time < 24 hr, dose 10 mg/kg, route subcutaneous; conditions: plasma
[35] = Apparent oral clearance in CF-1 mouse at 10 mg/kg, sc; type: ADME, organism-based; design: dose 10 mg/kg, route oral; conditions: in vivo
Mus musculus [36] = test: fAUC (0 to 24 hrs) in CF-1 mouse at 2 mg/kg, iv; type: ADME, organism-based; design: dose 2 mg/kg, route intravenous; conditions: in vivo
Streptococcus pneumoniae [37] = test: Antibacterial activity against penicillin-susceptible Streptococcus pneumoniae ATCC 6301 infected in sc dosed Swiss Webster mouse administered at 1 to 3 hrs post infection measured after 3 days; type: functional; conditions: ATCC 6301, sc
[38] = AUC (0 to 24 hrs) in CF-1 mouse at 2 mg/kg, iv; type: ADME, organism-based; design: time < 24 hr, dose 2 mg/kg, route intravenous; conditions: plasma
Streptococcus pneumoniae [39] = test: Antibacterial activity against penicillin-susceptible Streptococcus pneumoniae ATCC 6301 infected in po dosed Swiss Webster mouse administered at 1 to 3 hrs post infection measured after 3 days; type: functional; conditions: ATCC 6301, po
[40] = Ratio of fAUC (24 hrs) for community-associated methicillin-resistant Staphylococcus aureus OC8525 infected po dosed mouse to MIC for community-associated methicillin-resistant Staphylococcus aureus OC8525; type: functional
[41] = AUC (0 to 24 hrs) in CF-1 mouse at 10 mg/kg, po; type: ADME, organism-based; design: time < 24 hr, dose 10 mg/kg, route oral; conditions: plasma
Staphylococcus aureus [42] = test: Antibacterial activity against methicillin-susceptible Staphylococcus aureus Smith ATCC 13709 infected in SKH1 mouse assessed as log reduction in CFU/g skin at 5 mg/kg/day, po administered post infection measured after 48 hrs; type: functional, organism-based
[43] = Ratio of fAUC (24 hrs) for penicillin-susceptible Streptococcus pneumoniae ATCC 6301 infected po dosed mouse to MIC for penicillin-susceptible Streptococcus pneumoniae ATCC 6301; type: functional
Staphylococcus aureus [44] = test: Antibacterial activity against Methicillin-susceptible Staphylococcus aureus ATCC 13709 after 16 to 20 hrs by broth microdilution method; type: functional
Staphylococcus aureus [45] = test: Antibacterial activity against methicillin-susceptible Staphylococcus aureus Smith ATCC 13709 infected in SKH1 mouse assessed as log reduction in CFU/g skin at => 80 mg/kg/day, po administered post infection measured after 48 hrs; type: functional
[46] = Ratio of fAUC (24 hrs) for Methicillin-susceptible Staphylococcus aureus ATCC 13709 infected iv dosed mouse to MIC for Methicillin-susceptible Staphylococcus aureus ATCC 1370; type: functional
[47] = Half life in CF-1 mouse at 2 mg/kg, iv; type: ADME, organism-based; design: dose 2 mg/kg, route intravenous; conditions: in vivo
[48] = Ratio of fAUC (24 hrs) for Methicillin-susceptible Staphylococcus aureus ATCC 13709 infected sc dosed mouse to MIC for Methicillin-susceptible Staphylococcus aureus ATCC 1370; type: functional
Mus musculus [49] = test: fCmax in CF-1 mouse at 10 mg/kg, po; type: ADME, organism-based; design: dose 10 mg/kg, route oral; conditions: in vivo
Staphylococcus aureus [50] = test: Antibacterial activity against methicillin-susceptible Staphylococcus aureus ATCC 13709 infected in po dosed Swiss Webster mouse administered at 1 to 3 hrs post infection measured after 3 days; type: functional; conditions: ATCC 13709, po
Streptococcus pneumoniae [51] = test: Antibacterial activity against penicillin-susceptible Streptococcus pneumoniae ATCC 6301 after 16 to 20 hrs by broth microdilution method; type: functional
Staphylococcus aureus [52] = test: Antibacterial activity against Methicillin-resistant Staphylococcus aureus assessed as skin lesion size; type: functional
Staphylococcus aureus [53] = test: Antibacterial activity against community-associated methicillin-resistant Staphylococcus aureus OC8525 infected in SKH1 mouse assessed as log reduction in CFU/g skin up to 320 mg/kg/day, po administered post infection measured after 48 hrs; type: functional

## CN[C@H](CC(C)C)C(=O)N[C@H]1C(=O)N[C@@H](CC(N)=O)C(=O)N[C@H]2C(=O)N[C@H]3C(=O)N[C@H](C(=O)N[C@H](C(=O)O)c4cc(O)cc(O)c4-c4cc3ccc4O)[C@H](O)c3ccc(c(Cl)c3)Oc3cc2cc(c3O[C@@H]2O[C@H](CO)[C@@H](O)[C@H](O)[C@H]2O[C@H]2C[C@](C)(N)[C@H](O)[C@H](C)O2)Oc2ccc(cc2Cl)[C@H]1O [VANCOMYCIN]
Staphylococcus aureus [1]
  Activity: Active
Staphylococcus aureus [2]
  ED50: 5.6 mg/kg/day
Staphylococcus aureus [3]
  Activity: inactive
Staphylococcus aureus [4]
  ED50: 0.9 mg/kg/day
Staphylococcus aureus [5]
  ED50: 1.7 mg/kg/day
Staphylococcus aureus [6]
  ED50: 12 mg/kg/day

## CC(=O)NC[C@H]1CN(c2ccc(N3Cc4cn(C)nc4C3)c(F)c2)C(=O)O1
[7]
  Cmax: 7500 ng/mL
Staphylococcus aureus [8]
  Activity: inactive
Staphylococcus aureus [9]
  ED50: 2.1 mg/kg/day
[10]
  Cmax: 3500 ng/mL
Staphylococcus aureus [11]
  Activity: Active
Mus musculus [12]
  fCmax: 2.4 µg/mL
Streptococcus pneumoniae [13]
  ED50: 18 mg/kg/day
[14]
  fAUC/MIC: 8.6
Staphylococcus aureus [15]
  fold change (FC): 2
[16]
  Tmax: 0.5 h
[17]
  Tmax: 2 h
Streptococcus pneumoniae [18]
  fold change (FC): 2
[19]
  CL/F: 7.17 mL/min/kg
Streptococcus pneumoniae [20]
  fold change (FC): 2
Streptococcus pneumoniae [20]; Streptococcus pneumoniae, ATCC 6301, po
  ED50: 3.1 mg/kg/day
[21]
  clearance: 10.5 mL/min/kg
[22]
  half-life: 3.4 h
[23]
  fAUC/MIC: 8.3
[24]
  Cmax: 4400 ng/mL
[25]
  fAUC/MIC: 4.1
[26]
  fAUC/MIC: 13
Mus musculus [27]
  fAUC: 13000 ng·h/mL
[28]
  half-life: 2 h
Mus musculus [29]
  fCmax: 4.1 µg/mL
Staphylococcus aureus [30]
  Activity: 14%
[31]
  fAUC/MIC: 4.3
Mus musculus [32]
  fAUC: 8300 ng·h/mL
Staphylococcus aureus [33]
  MIC: 2 µg/mL (≈ 5.36 µM)
[34]
  AUC(0-t) at 24 h: 15000 ng·h/mL
[35]
  CL/F: 10.8 mL/min/kg
Staphylococcus aureus [2]
  ED50: 1.5 mg/kg/day
Mus musculus [36]
  fAUC: 1700 ng·h/mL
Streptococcus pneumoniae [37]
  ED50: 9.3 mg/kg/day
[38]
  AUC(0-t) at 24 h: 3200 ng·h/mL
Streptococcus pneumoniae [39]
  ED50: 3.1 mg/kg/day
[40]
  fAUC/MIC: 6.3
Staphylococcus aureus [4]
  ED50: 4 mg/kg/day
[41]
  AUC(0-t) at 24 h: 23000 ng·h/mL
Staphylococcus aureus [5]
  ED50: 4.7 mg/kg/day
Staphylococcus aureus [42]
  Activity: inactive
[43]
  fAUC/MIC: 13
Staphylococcus aureus [44]
  MIC: 1 µg/mL (≈ 2.68 µM)
Staphylococcus aureus [45]
  FC: 0.9
[46]
  fAUC/MIC: 8.6
Staphylococcus aureus [6]
  ED50: 3.5 mg/kg/day
[47]
  half-life: 1.5 h
[48]
  fAUC/MIC: 8.3
Mus musculus [49]
  fCmax: 1.9 µg/mL
Staphylococcus aureus [50]
  ED50: 3.4 mg/kg/day
Streptococcus pneumoniae [51]
  MIC: 1 µg/mL (≈ 2.68 µM)
Staphylococcus aureus [52]
  Activity: 23%
Staphylococcus aureus [53]
  FC: 1
